Laboratory results taken from patent US4602026A, “Ophthalmic topical agent for remedy of diseases of iris and ciliary body” (Senju Pharmaceutical Co., Ltd., priority 1984, dated 1986).

Legend:
[1] = system: mice and rats; assay: Acute toxicity test, symptoms and findings common to mice and rats; assay type: in vivo; details: for life period in the death cases: both animals
Procedure: (§1) Acute toxicity test was conducted on rats aged four weeks to which 5-(3-ethoxy-4-pentyloxyphenyl)-2,4-thiazolidinedione was administered.
The following symptoms in common with the mice and rats were observed.

[2] = in vivo; details: rat, in vivo
Procedure: as §1

[3] = system: Rat; assay: in vivo
Procedure: as §1

[4] = system: Mouse; assay: Acute toxicity test, mouse; assay type: in vivo; details: mice
[5] = Acute toxicity test, mouse; assay type: in vivo; details: mouse, in vivo
[6] = ip, intraperitoneal injection, female
[7] = ip, intraperitoneal injection, male
[8] = po, oral administration, female
[9] = sc, subcutaneous injection, female
[10] = sc, subcutaneous injection, male

In the case of `CCCCCOc1ccc(C2SC(=O)NC2=O)cc1OCC` (centres unmarked) [5-(3-ethoxy-4-pentyloxyphenyl)-2,4-thiazolidinedione], the General symptoms ([1]; in vivo, sc) is reported as 3 or 5 hours after the administration, a slight suppression of spontaneous motility was found, and then, lowering in tonus of the abdominal muscle, walking disorder, lacrimation and respiratory depression were observed, the “life period in the death cases” value ([1]; intraperitoneal administration) is reported as 2 to 24 h and the “Observation on dissection, death cases” value ([1]; mice and rats) is reported as “congestion of the lung was observed in both mice and rats”. For the same compound, the “life period in the death cases” value ([1]; oral administration, major cases) was 2 to 24 h, the “life period in the death cases” value ([1]; oral administration, minor cases) was 48 to 96 h and the “life period in the death cases” value ([1]; subcutaneous administration) was “from the night of the administration day to three days after the administration”. For the same compound, the LD50 [2, 6] was 520 mg/kg, the LD50 [2, 7] was 490 mg/kg and the LD50 [2, 8] was 4330 mg/kg. For the same compound, the LD50 ([2]; po, oral administration, male) was 5300 mg/kg, the LD50 [2, 9] was 3300 mg/kg and the LD50 [2, 10] was 3210 mg/kg. For the same compound, the Observation on dissection ([3]; rat, in vivo, po) was “atrophy of the thymus gland was further seen”, the “Observation on dissection, survival cases” value ([3]; rats, subcutaneous administration, injection area) was “formed with a cyst of hen's egg size in the injection area, and the cyst was found to contain an extremely small amount of unabsorbed medicament and a small amount of extravasation liquid” and the “General symptoms, additional in mice” value ([4]; intraperitoneal injection) was “projection of the eyeball, a secretion in the margin of palpebra, fall of the body surface temperature and a slight degree of tremor in a few cases were seen”. The “General symptoms, additional in mice” value ([4]; oral administration) was “lacrimation, a secretion in the margin of palpebra and fall of the body surface temperature were additionally observed”, the “General symptoms, additional in mice” value ([4]; subcutaneous injection, next day after administration) was “projection of the eyeball, a secretion in the margin of palpebra and fall of the body surface temperature were additionally seen” and the LD50 [5, 6] was 500 mg/kg. The LD50 [5, 7] was 560 mg/kg, the LD50 [5, 8] was 2150 mg/kg and the LD50 ([5]; po, oral administration, male) was 2320 mg/kg. The LD50 [5, 9] was 2270 mg/kg and the LD50 [5, 10] was 1720 mg/kg.
